Test system: 293T cells
Test: Cytotoxicity test (CCK-8 cell viability) in 293T cells
Type: cell-based, human
Settings: 24 hours co-incubation, 293T cell line, % of control
Method: Human undifferentiated neuroblastoma cell line SH-SY5Y and human embryonic kidney cell line (HEK)-293T were purchased from Korean Cell Line Bank (Korea) and Takara (Japan), respectively. Cells were grown in HyClone Minimal Essential Medium (MEM) and Dulbecco's Modified Eagle Medium (DMEM), respectively, supplemented with 10% (v/v) fetal bovine serum (FBS), penicillin (100 U/mL), and streptomycin ([…]). Cells were maintained in a humidified atmosphere of 95% air and 5% CO2 at 37° C. Cells were passaged 10 times at maximum. Cells were dissociated using 0.05% trypsin-EDTA solution and the cells were seeded in new culture dishes for maintenance.
To examine the cytotoxicity of compounds described herein in human cell lines, SH-SY5Y and 293T cells were used. Approximately 8,000 cells (for 293T) and 15,000 cells (for SH-SY5Y) were plated per well of a 96-well plate (SPL Life Sciences Co., Ltd., Pocheon, Korea). After incubating at 37° C. for 24 hours in a humidified atmosphere containing 5% CO2, the culture medium was replaced by a series of concentrations of test compounds diluted in the corresponding culture medium. The time of co-incubation was 24 hours and six replicates were made for each measurement. Finally, 10 μL of CCK-8 reagent (Dojindo Laboratories, Rockville, MD) was added to each well, and after incubation at 37° C. for 3 minutes, the OD at 450 nm was measured using a multifunction microplate reader (Tecan Infinite M200 Pro). These measurements were compared to that of a control and expressed as a percentage of the control to calculate cell viability. The IC50 value was calculated using SPSS software. To do this, the absorbance of the blank wells with only growth medium is subtracted from the values or the wells with cells. The readout value of background (vehicle) was set as a 100% viability, and then the percent viability for each test solution was calculated.
Cell viability (%)=[(As-Ab)/(Ac-Ab)]×100
The data was presented as the mean value and standard error of the mean (S.E.M.). Statistical analysis was performed with the one-way ANOVA with Tukey's post hoc test (GraphPad Prism 5 software package, version 5.02, GraphPad Software Inc. USA). Significance was accepted at p<0.05.

| Compound | Cell viability test results (CCK) 10 uM [%<] | Cell viability test results (CCK) 100 uM [%<] |
| --- | --- | --- |
| C[C@H]1CC[C@@H](C(=O)O)CN1C(=O)Cc1cccs1 [BnH12034, (3R,6S)-6-methyl-1-(2-(thiophen-2-yl)acetyl)piperidine-3-carboxylic acid] | 90 | 85 |
| C[C@H]1CC[C@@H](C(=O)O)CN1C(=O)Cc1ccc(Br)cc1 [BnH12032, (3R,6S)-1-(2-(4-bromophenyl)acetyl)-6-methylpiperidine-3-carboxylic acid] | 99 | 95 |
| C[C@H]1CC[C@@H](C(=O)O)CN1C(=O)Cc1ccc(Cl)cc1 [BnH12023, (3R,6S)-1-(2-(4-chlorophenyl)acetyl)-6-methylpiperidine-3-carboxylic acid] | 95 | 80 |
| COc1ccc(CC(=O)N2C[C@H](C(=O)O)CC[C@@H]2C)cn1 [BnH12075, (3R,6S)-1-(2-(6-methoxypyridin-3-yl)acetyl)-6-methylpiperidine-3-carboxylic acid] | 99 | 99 |
| O=C(O)[C@@H]1CCCN1C(=O)Cc1ccc(F)cc1Cl [BnH12013, (2-(2-chloro-4-fluorophenyl)acetyl)-L-proline] | 99 | 99 |
| C[C@H]1CC[C@@H](C(=O)[O-])CN1C(=O)Cc1ccncc1.[Na+] [BnH12033, Sodium (3R,6S)-6-methyl-1-(2-(pyridin-4-yl)acetyl)piperidine-3-carboxylate] | 90 | 65 |
| C[C@H]1CC[C@@H](C(=O)O)CN1C(=O)Cc1ncccn1 [BnH12041, (3R,6S)-6-methyl-1-(2-(pyrimidin-2-yl)acetyl)piperidine-3-carboxylic acid] | 90 | 70 |
| C[C@H]1CC[C@@H](C(=O)O)CN1C(=O)Cc1cccc(Cl)c1 [BnH12026, (3R,6S)-1-(2-(3-chlorophenyl)acetyl)-6-methylpiperidine-3-carboxylic acid] | 99 | 99 |
| C[C@H]1CC[C@@H](C(=O)O)CN1C(=O)Cc1ccc(Cl)c(Cl)c1 [BnH12028, (3R,6S)-1-(2-(3,4-dichlorophenyl)acetyl)-6-methylpiperidine-3-carboxylic acid] | 90 | 80 |
| C[C@H]1CC[C@@H](C(=O)O)CN1C(=O)Cc1ccc(C(C)(C)C)cc1 [BnH12029, (3R,6S)-1-(2-(4-(tert-butyl)phenyl)acetyl)-6-methylpiperidine-3-carboxylic acid] | 99 | 80 |
| C[C@H]1CC[C@@H](C(=O)O)CN1C(=O)Cc1ccc(N(C)C)cc1 [BnH12076, (3R,6S)-1-(2-(4-(dimethylamino)phenyl)acetyl)-6-methylpiperidine-3-carboxylic acid] | 95 | 95 |
| O=C(O)[C@H]1CCCN1C(=O)Cc1ccc(F)cc1Cl [BnH12012, (2-(2-chloro-4-fluorophenyl)acetyl)-D-proline] | 95 | 90 |
| C[C@H]1CC[C@@H](C(=O)O)CN1C(=O)c1ccc(F)cc1Cl [BnH12011, (3R,6S)-1-(2-chloro-4-fluorobenzoyl)-6-methylpiperidine-3-carboxylic acid] | 95 | 95 |
| COC(=O)[C@@H]1CC[C@H](C)N(C(=O)Cc2ccc(F)cc2Cl)C1 [BnH12020, Methyl (3R,6S)-1-(2-(2-chloro-4-fluorophenyl)acetyl)-6-methylpiperidine-3-carboxylate] | 95 | 95 |
| CCC(=O)N1C[C@H](C(=O)O)CC[C@@H]1C [BnH12008, (3R,6S)-6-methyl-1-propionylpiperidine-3-carboxylic acid] | 95 | 90 |
| C[C@@H]1CC[C@H](C(=O)O)CN1C(=O)Cc1ccccc1 [BnH12062, (3S,6R)-6-methyl-1-(2-phenylacetyl)piperidine-3-carboxylic acid] | 85 | 75 |
| O=C(NO)[C@@H]1CCCN1C(=O)c1ccccc1 [BnH12019, (S)-1-Benzoyl-N-hydroxypyrrolidine-2-carboxamide] | 99 | 90 |
| C[C@H]1CC[C@@H](C(=O)O)CN1C(=O)Cc1ccc(F)cc1 [BnH12031, (3R,6S)-1-(2-(4-fluorophenyl)acetyl)-6-methylpiperidine-3-carboxylic acid] | 90 | 75 |
| C[C@H]1CC[C@@H](C(N)=O)CN1C(=O)Cc1ccc(F)cc1Cl [BnH12022, (3R,6S)-1-(2-(2-chloro-4-fluorophenyl)acetyl)-6-methylpiperidine-3-carboxamide] | 99 | 99 |
| CCOC(=O)[C@@H]1CC[C@H](C)N(C(=O)Cc2ccc(F)cc2Cl)C1 [BnH12021, Ethyl (3R,6S)-1-(2-(2-chloro-4-fluorophenyl)acetyl)-6-methylpiperidine-3-carboxylate] | 90 | 80 |
| O=C(NO)[C@H]1CCCN1C(=O)Cc1ccc(F)cc1Cl [BnH12014, (R)-1-(2-(2-chloro-4-fluorophenyl)acetyl)-N-hydroxypyrrolidine-2-carboxamide] | 99 | 90 |
| C[C@H]1CC[C@@H](C(=O)O)CN1C(=O)Cc1cncnc1 [BnH12040, (3R,6S)-6-methyl-1-(2-(pyrimidin-5-yl)acetyl)piperidine-3-carboxylic acid] | 85 | 80 |
| CCC1CCC(C(=O)O)CN1C(=O)Cc1ccc(F)cc1Cl (stereo not drawn) [BnH12094, 1-(2-(2-chloro-4-fluorophenyl)acetyl)-6-ethylpiperidine-3-carboxylic acid] | 80 | 70 |
| Cc1ccc(CC(=O)N2C[C@H](C(=O)O)CC[C@@H]2C)cc1 [BnH12024, (3R,6S)-6-methyl-1-(2-(p-tolyl)acetyl)piperidine-3-carboxylic acid] | 99 | 99 |
| C[C@H]1CC[C@@H](C(=O)O)CN1C(=O)Cc1ccco1 [BnH12035, (3R,6S)-1-(2-(furan-2-yl)acetyl)-6-methylpiperidine-3-carboxylic acid] | 90 | 85 |
| O=C(O)[C@@H]1CCCN(C(=O)Cc2ccc(F)cc2Cl)C1 [BnH12004, (R)-1-(2-(2-chloro-4-fluorophenyl)acetyl)piperidine-3-carboxylic acid] | 95 | 85 |
| Cc1cccc(CC(=O)N2C[C@H](C(=O)O)CC[C@@H]2C)c1 [BnH12030, (3R,6S)-6-methyl-1-(2-(m-tolyl)acetyl)piperidine-3-carboxylic acid] | 95 | 85 |

Reference: US20250188032A1, “NITROGEN-CONTAINING HETEROCYCLIC COMPOUNDS AND USES THEREOF” (BNH RESEARCH CO., LTD., priority 2022, published 2025)
